# Laboratory results as given in PubChem BioAssay (NCI).
#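 Test compounds were applied to cells in 96-well plates for 48 hours at 5 doses. Here, GI50 denotes the concentration required for 50% inhibition of growth. At the TGI there is no net growth.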
# How the values were obtained:
# Assay in all cases: NCI-60 cell line screen, 48 h
# [1] = tested on: 786-0 renal
# [2] = tested on: A498 renal
# [3] = tested on: A549 NSCLC
# [4] = tested on: ACHN renal
# [5] = tested on: CCRF-CEM leukemia
# [6] = tested on: COLO 205 colon
# [7] = tested on: DU-145 prostate
# [8] = tested on: EKVX NSCLC
# [9] = tested on: HCC-2998 colon
# [10] = tested on: HCT-116 colon
# [11] = tested on: HCT-15 colon
# [12] = tested on: HL-60(TB) leukemia
# [13] = tested on: HOP-62 NSCLC
# [14] = tested on: HOP-92 NSCLC
# [15] = tested on: HS 578T breast
# [16] = tested on: HT29 colon
# [17] = tested on: IGROV1 ovarian
# [18] = tested on: KM12 colon
# [19] = tested on: LOX IMVI melanoma
# [20] = tested on: M14 melanoma
# [21] = tested on: MALME-3M melanoma
# [22] = tested on: MCF7 breast
# [23] = tested on: MDA-MB-231 breast
# [24] = tested on: MDA-MB-435
# [25] = tested on: MOLT-4 leukemia
# [26] = tested on: NCI-H226 lung
# [27] = tested on: NCI-H23 lung
# [28] = tested on: NCI-H460 lung
# [29] = tested on: NCI/ADR-RES ovarian
# [30] = tested on: OVCAR-4 ovarian
# [31] = tested on: OVCAR-5 ovarian
# [32] = tested on: OVCAR-8 ovarian
# [33] = tested on: RPMI-8226 leukemia
# [34] = tested on: RXF 393 renal
# [35] = tested on: SF-268 CNS
# [36] = tested on: SF-295 CNS
# [37] = tested on: SF-539 CNS
# [38] = tested on: SK-MEL-28 melanoma
# [39] = tested on: SK-MEL-5 melanoma
# [40] = tested on: SK-OV-3 ovarian
# [41] = tested on: SN12C renal
# [42] = tested on: SNB-19 CNS
# [43] = tested on: SNB-75 CNS
# [44] = tested on: SR leukemia
# [45] = tested on: SW-620 colon
# [46] = tested on: T-47D breast
# [47] = tested on: TK-10 renal
# [48] = tested on: U251 CNS
# [49] = tested on: UACC-257 melanoma
# [50] = tested on: UACC-62 melanoma
# [51] = tested on: UO-31 renal
# [52] = tested on: BT-549 breast
# [53] = tested on: CAKI-1 renal
# [54] = tested on: K-562 leukemia
# [55] = tested on: NCI-H522 lung
# [56] = tested on: PC-3 prostate
# [57] = tested on: SK-MEL-2 melanoma
# [58] = tested on: OVCAR-3 ovarian
smiles,measurement,setting,value
O=C1NCC2(CCNCC2)N1,TGI,[1],> 100 µM
same,TGI,[2],> 100 µM
same,TGI,[3],> 100 µM
same,TGI,[4],> 100 µM
same,TGI,[5],> 100 µM
same,TGI,[6],> 100 µM
same,TGI,[7],> 100 µM
same,TGI,[8],> 100 µM
same,TGI,[9],> 100 µM
same,TGI,[10],> 100 µM
same,TGI,[11],> 100 µM
same,TGI,[12],> 100 µM
same,TGI,[13],> 100 µM
same,TGI,[14],> 100 µM
same,TGI,[15],> 100 µM
same,TGI,[16],> 100 µM
same,TGI,[17],> 100 µM
same,TGI,[18],> 100 µM
same,TGI,[19],> 100 µM
same,TGI,[20],> 100 µM
same,TGI,[21],> 100 µM
same,TGI,[22],> 100 µM
same,TGI,[23],> 100 µM
same,TGI,[24],> 100 µM
same,TGI,[25],> 100 µM
same,TGI,[26],> 100 µM
same,TGI,[27],> 100 µM
same,TGI,[28],> 100 µM
same,TGI,[29],> 100 µM
same,TGI,[30],> 100 µM
same,TGI,[31],> 100 µM
same,TGI,[32],> 100 µM
same,TGI,[33],> 100 µM
same,TGI,[34],> 100 µM
same,TGI,[35],> 100 µM
same,TGI,[36],> 100 µM
same,TGI,[37],> 100 µM
same,TGI,[38],> 100 µM
same,TGI,[39],> 100 µM
same,TGI,[40],> 100 µM
same,TGI,[41],> 100 µM
same,TGI,[42],> 100 µM
same,TGI,[43],> 100 µM
same,TGI,[44],> 100 µM
same,TGI,[45],> 100 µM
same,TGI,[46],> 100 µM
same,TGI,[47],> 100 µM
same,TGI,[48],> 100 µM
same,TGI,[49],> 100 µM
same,TGI,[50],> 100 µM
same,TGI,[51],> 100 µM
Cc1nn(-c2ccccc2)c(C)c1/C=N/N1CCN(Cc2ccccc2)CC1,GI50,[1],22.9 µM
same,TGI,[1],97.4 µM
same,GI50,[3],> 100 µM
same,TGI,[3],> 100 µM
same,GI50,[4],52.4 µM
same,TGI,[4],> 100 µM
same,GI50,[52],48.2 µM
same,TGI,[52],> 100 µM
same,GI50,[53],> 100 µM
same,TGI,[53],> 100 µM
same,GI50,[6],41 µM
same,TGI,[6],> 100 µM
same,GI50,[7],96.4 µM
same,TGI,[7],> 100 µM
same,GI50,[8],> 100 µM
same,TGI,[8],> 100 µM
same,GI50,[10],28 µM
same,TGI,[10],> 100 µM
same,GI50,[11],30.4 µM
same,TGI,[11],> 100 µM
same,GI50,[12],28.7 µM
same,TGI,[12],63 µM
same,GI50,[13],16.3 µM
same,TGI,[13],74.4 µM
same,GI50,[15],> 100 µM
same,TGI,[15],> 100 µM
same,GI50,[16],43 µM
same,TGI,[16],> 100 µM
same,GI50,[54],31.2 µM
same,TGI,[54],> 100 µM
same,GI50,[18],31.3 µM
same,TGI,[18],> 100 µM
same,GI50,[19],44 µM
same,TGI,[19],> 100 µM
same,GI50,[22],31 µM
same,TGI,[22],> 100 µM
same,GI50,[23],22.6 µM
same,TGI,[23],95.2 µM
same,GI50,[24],> 100 µM
same,TGI,[24],> 100 µM
same,GI50,[25],26.8 µM
same,TGI,[25],55.2 µM
same,GI50,[26],27.8 µM
same,TGI,[26],96.2 µM
same,GI50,[27],41.7 µM
same,TGI,[27],> 100 µM
same,GI50,[28],33.5 µM
same,TGI,[28],> 100 µM
same,GI50,[55],78.5 µM
same,TGI,[55],> 100 µM
same,GI50,[29],50.3 µM
same,TGI,[29],> 100 µM
same,GI50,[31],> 100 µM
same,TGI,[31],> 100 µM
same,GI50,[32],> 100 µM
same,TGI,[32],> 100 µM
same,GI50,[56],25.2 µM
same,TGI,[56],96.5 µM
same,GI50,[33],19.9 µM
same,TGI,[33],48.9 µM
same,GI50,[34],> 100 µM
same,TGI,[34],> 100 µM
same,GI50,[35],38 µM
same,TGI,[35],> 100 µM
same,GI50,[36],> 100 µM
same,TGI,[36],> 100 µM
same,GI50,[37],76.4 µM
same,TGI,[37],> 100 µM
same,GI50,[57],60.7 µM
same,TGI,[57],> 100 µM
same,GI50,[38],80.5 µM
same,TGI,[38],> 100 µM
same,GI50,[39],18.7 µM
same,TGI,[39],36.7 µM
same,GI50,[41],> 100 µM
same,TGI,[41],> 100 µM
same,GI50,[42],> 100 µM
same,TGI,[42],> 100 µM
same,GI50,[43],99 µM
same,TGI,[43],> 100 µM
same,GI50,[44],13.8 µM
same,TGI,[44],35.1 µM
same,GI50,[45],> 100 µM
same,TGI,[45],> 100 µM
same,GI50,[47],28.7 µM
same,TGI,[47],> 100 µM
same,GI50,[48],67.5 µM
same,TGI,[48],> 100 µM
same,GI50,[49],63 µM
same,TGI,[49],> 100 µM
same,GI50,[50],33.8 µM
same,TGI,[50],> 100 µM
same,GI50,[51],66.4 µM
same,TGI,[51],> 100 µM
COc1ccc2cc(C(=O)/C=C/c3ccco3)ccc2c1,GI50,[1],10.4 µM
same,TGI,[1],> 100 µM
same,GI50,[3],31.8 µM
same,TGI,[3],> 100 µM
same,GI50,[4],29.4 µM
same,TGI,[4],79.1 µM
same,GI50,[52],20.4 µM
same,TGI,[52],43.8 µM
same,GI50,[53],38.7 µM
same,TGI,[53],> 100 µM
same,GI50,[6],51.2 µM
same,TGI,[6],> 100 µM
same,GI50,[7],23.9 µM
same,TGI,[7],88.6 µM
same,GI50,[8],6.33 µM
same,TGI,[8],26.2 µM
same,GI50,[10],1.29 µM
same,TGI,[10],35.6 µM
same,GI50,[11],25.6 µM
same,TGI,[11],> 100 µM
same,GI50,[12],24.6 µM
same,TGI,[12],83.3 µM
same,GI50,[14],62.6 µM
same,TGI,[14],> 100 µM
same,GI50,[16],42.5 µM
same,TGI,[16],> 100 µM
same,GI50,[17],30.3 µM
same,TGI,[17],> 100 µM
same,GI50,[54],38 µM
same,TGI,[54],> 100 µM
same,GI50,[18],34.5 µM
same,TGI,[18],> 100 µM
same,GI50,[19],54 µM
same,TGI,[19],> 100 µM
same,GI50,[20],0.19 µM
same,TGI,[20],12.6 µM
same,GI50,[21],31 µM
same,TGI,[21],> 100 µM
same,GI50,[23],29.2 µM
same,TGI,[23],> 100 µM
same,GI50,[24],34.2 µM
same,TGI,[24],> 100 µM
same,GI50,[25],41.7 µM
same,TGI,[25],> 100 µM
same,GI50,[27],19.5 µM
same,TGI,[27],42.7 µM
same,GI50,[28],22.7 µM
same,TGI,[28],52.6 µM
same,GI50,[55],19.7 µM
same,TGI,[55],58.5 µM
same,GI50,[29],23.8 µM
same,TGI,[29],63.8 µM
same,GI50,[58],44 µM
same,TGI,[58],> 100 µM
same,GI50,[30],64.3 µM
same,TGI,[30],> 100 µM
same,GI50,[32],34.2 µM
same,TGI,[32],> 100 µM
same,GI50,[56],47.4 µM
same,TGI,[56],> 100 µM
same,GI50,[33],32 µM
same,TGI,[33],99.3 µM
same,GI50,[34],15.9 µM
same,TGI,[34],38.7 µM
same,GI50,[35],20 µM
same,TGI,[35],45.5 µM
same,GI50,[36],38.8 µM
same,TGI,[36],> 100 µM
same,GI50,[57],21.6 µM
same,TGI,[57],59.1 µM
same,GI50,[38],> 100 µM
same,TGI,[38],> 100 µM
same,GI50,[39],12.2 µM
same,TGI,[39],31.1 µM
same,GI50,[40],53.1 µM
same,TGI,[40],> 100 µM
same,GI50,[41],31.3 µM
same,TGI,[41],> 100 µM
same,GI50,[42],> 100 µM
same,TGI,[42],> 100 µM
same,GI50,[43],> 100 µM
same,TGI,[43],> 100 µM
same,GI50,[44],16.2 µM
same,TGI,[44],68.2 µM
same,GI50,[45],35 µM
same,TGI,[45],> 100 µM
same,GI50,[46],> 100 µM
same,TGI,[46],> 100 µM
same,GI50,[47],25.6 µM
same,TGI,[47],70 µM
same,GI50,[48],28.5 µM
same,TGI,[48],97.4 µM
same,GI50,[49],26.1 µM
same,TGI,[49],59.6 µM
same,GI50,[50],26.6 µM
same,TGI,[50],> 100 µM
same,GI50,[51],37.5 µM
same,TGI,[51],> 100 µM
